System: SARS-CoV-2
Assay: microbe, parasite or virus in culture
Details: Severe acute respiratory syndrome coronavirus 2, Vero C1008, 48 h

| SMILES | IC50 [µM] | IC50 (read-out: pIC50 (converted)) [µM] |
| --- | --- | --- |
| CCn1cc(C(=O)O)c(=O)c2cc(F)c(N3CCNC(C)C3)c(F)c21 (stereo not drawn) [LOMEFLOXACIN] | > 20 | > 20 |
| Nc1nc(OCc2cc(Br)cs2)c2[nH]cnc2n1 [LOMEGUATRIB] | > 20 | > 20 |
| COc1ccc(Cl)c2c1CCCC2N(C)C (stereo not drawn) [LOMETRALINE] | > 20 | > 20 |
| O=C(NC1CCN(CCCCC2(C(=O)NCC(F)(F)F)c3ccccc3-c3ccccc32)CC1)c1ccccc1-c1ccc(C(F)(F)F)cc1 [LOMITAPIDE] | > 20 | > 20 |
| O=NN(CCCl)C(=O)NC1CCCCC1 [LOMUSTINE] | > 20 | > 20 |
| NC(=O)N1CCC(CC(=O)N2CCC([C@H]3c4ncc(Br)cc4CCc4cc(Cl)cc(Br)c43)CC2)CC1 [LONAFARNIB] | > 20 | > 20 |
| COc1c(OC)c(OC(C)=O)c2cc(Cl)ccc2c1OC(C)=O [LONAPALENE] | > 20 | > 20 |
| O=C(O)Cc1cn(-c2ccccc2)nc1-c1ccc(Cl)cc1 [LONAZOLAC] | > 20 | > 20 |
| O=C(O)c1nn(Cc2ccc(Cl)cc2Cl)c2ccccc12 [LONIDAMINE] | > 20 | > 20 |
| CN1CCN(/C=C2\N=C3CN=C(c4ccccc4Cl)c4cc([N+](=O)[O-])ccc4N3C2=O)CC1 [LOPRAZOLAM] | > 20 | > 20 |
| N[C@@H](C(=O)N[C@@H]1C(=O)N2C(C(=O)O)=C(Cl)CC[C@H]12)c1ccccc1 [LORACARBEF ANHYDROUS] | > 20 | > 20 |
| CCOC(=O)N1CCC(=C2c3ccc(Cl)cc3CCc3cccnc32)CC1 [LORATADINE] | > 20 | > 20 |
| O=C1Nc2ccc(Cl)cc2C(c2ccccc2Cl)=NC1O (stereo not drawn) [LORAZEPAM] | > 20 | > 20 |
| Clc1ccc(N2CCN(C/C=C/c3ccccc3)CC2)nn1 [LORCINADOL] | > 20 | > 20 |
| Cl/C(=C\n1cncn1)c1ccc(Cl)cc1Cl [LORECLEZOLE] | > 20 | > 20 |
| CCCCCN(CCCCC)C(=O)C(CCC(=O)O)NC(=O)c1ccc(Cl)c(Cl)c1 (stereo not drawn) [LORGLUMIDE] | > 20 | > 20 |
| C[C@H]1Oc2cc(cnc2N)-c2c(nn(C)c2C#N)CN(C)C(=O)c2ccc(F)cc21 [LORLATINIB] | > 20 | > 20 |
| CN1C(=O)C(O)N=C(c2ccccc2Cl)c2cc(Cl)ccc21 (stereo not drawn) [LORMETAZEPAM] | > 20 | > 20 |
| CN(C(=O)CNC(=O)CN)c1ccc(Cl)cc1C(=O)c1ccccc1Cl [LORZAFONE ANHYDROUS] | > 20 | > 20 |
| CCCCc1nc(Cl)c(CO)n1Cc1ccc(-c2ccccc2-c2nnn[nH]2)cc1 [LOSARTAN] | > 20 | > 20 |
| Cc1c(F)cc(C(=O)NC2CC2)cc1-c1ccc(C(=O)NCC(C)(C)C)cn1 [LOSMAPIMOD] | > 20 | > 20 |
| O=C(c1ccc(Nc2ccnc3cc(C(F)(F)F)ccc23)cc1)N1CCN(S(=O)(=O)c2ccc(F)cc2)CC1 [LOSULAZINE] | > 20 | > 20 |
| CC[C@H](C)C(=O)O[C@H]1C[C@@H](C)C=C2C=C[C@H](C)[C@H](CC[C@@H]3C[C@@H](O)CC(=O)O3)[C@H]21 [LOVASTATIN] | > 20 | > 20 |
| CN1CCN(C2=Nc3ccccc3Oc3ccc(Cl)cc32)CC1 [LOXAPINE] | > 20 | > 20 |
| CCCCCN(CCCOC)C(=O)C(CCC(=O)O)NC(=O)c1ccc(Cl)c(Cl)c1 (stereo not drawn) [LOXIGLUMIDE] | > 20 | > 20 |

| SMILES | IC50 [µM] | IC50 (read-out: pIC50 (converted)) [µM] |
| --- | --- | --- |
| CNC(=O)c1cccc2cc(Oc3ccnc4cc(OCC5(N)CC5)c(OC)cc34)ccc12 [LUCITANIB] | > 20 | > 20 |
| CC(C)C(=O)OC[C@@]1(CCl)O[C@@H](n2ccc(N)nc2=O)[C@H](F)[C@@H]1OC(=O)C(C)C [LUMICITABINE] | > 20 | > 20 |
| CCNC(=O)c1noc(-c2cc(C(C)C)c(O)cc2O)c1-c1ccc(CN2CCOCC2)cc1 [LUMINESPIB] | > 20 | > 20 |
| Cc1ccc(Nc2c(F)cccc2Cl)c(CC(=O)O)c1 [LUMIRACOXIB] | > 20 | > 20 |
| OC[C@@H]1CCCN2CCCC[C@H]12 [LUPININE] | > 20 | > 20 |
| Cc1nc2ccccn2c(=O)c1CCN1CCc2oc3ccccc3c2C1 [LUSAPERIDONE] | > 20 | > 20 |
| O=c1cc(-c2ccc(O)c(O)c2)oc2cc(O)cc(O)c12 [LUTEOLIN] | > 20 | > 20 |
| N[C@@]1(C(=O)O)CS(=O)(=O)[C@H]2[C@H](C(=O)O)[C@H]21 [LY404039] | > 20 | > 20 |
| Cc1nc(N2CCN(C)CC2)c2nc(-c3ccccc3Cl)n(C3CCOCC3)c2n1 [LY2828360] | > 20 | > 20 |
| O[C@H]1[C@H]2c3cc4c(cc3CN3CCC(=C[C@@H]1O)[C@H]23)OCO4 [LYCORINE] | > 20 | > 20 |
| NCc1ccc(S(N)(=O)=O)cc1 [MAFENIDE] | > 20 | > 20 |
| CCOC(=O)CC(SP(=S)(OC)OC)C(=O)OCC (stereo not drawn) [MALATHION] | > 20 | > 20 |
| O=C(O)/C=C\C(=O)O [MALEIC ACID] | > 20 | > 20 |
| O=C(O)CC(O)C(=O)O (stereo not drawn) [MALIC ACID] | > 20 | > 20 |
| O=C(O)CC(=O)O [MALONIC ACID] | > 20 | > 20 |
| Cc1occc(=O)c1O [MALTOL] | > 20 | > 20 |
| OC[C@H]1O[C@H](O[C@H]2[C@H](O)[C@@H](O)[C@H](O)O[C@@H]2CO)[C@H](O)[C@@H](O)[C@@H]1O [MALTOSE] | > 20 | > 20 |
| COC(=O)C(O)c1ccccc1 (stereo not drawn) [MANDELIC ACID, METHYL ESTER] | > 20 | > 20 |
| O=c1c2cc(O)c(O)cc2oc2cc(O)c([C@@H]3O[C@H](CO)[C@@H](O)[C@H](O)[C@H]3O)c(O)c12 [MANGIFERIN] | > 20 | > 20 |
| COC(=O)C1=C(C)NC(C)=C(C(=O)OCCN2CCN(C(c3ccccc3)c3ccccc3)CC2)C1c1cccc([N+](=O)[O-])c1 (stereo not drawn) [MANIDIPINE 6300] | > 20 | > 20 |
| Cc1nnc(C(C)C)n1[C@H]1C[C@H]2CC[C@@H](C1)N2CC[C@H](NC(=O)C1CCC(F)(F)CC1)c1ccccc1 [MARAVIROC] | > 20 | > 20 |
| CN1CCN(c2c(F)cc3c(=O)c(C(=O)O)cn4c3c2OCN4C)CC1 [MARBOFLOXACIN] | > 20 | > 20 |
| Cn1cc(-c2ccncc2)c(-c2ccc(OCc3ccc4ccccc4n3)cc2)n1 [MARDEPODECT] | > 20 | > 20 |
| CC(C)Nc1nc2cc(Cl)c(Cl)cc2n1[C@H]1O[C@@H](CO)[C@H](O)[C@@H]1O [MARIBAVIR] | > 50.1 | > 50.1 |
| C=CC(=O)N[C@@H]1CN(c2nc(Nc3cn(C)nc3OC)c3ncn(C)c3n2)C[C@H]1F [MAVELERTINIB] | > 20 | > 20 |

| SMILES | IC50 [µM] | IC50 (read-out: pIC50 (converted)) [µM] |
| --- | --- | --- |
| CC(C)Oc1ccccc1N1CCN(Cc2cccc(C(=O)N3CCCCC3)c2)CC1 [MAZAPERTINE] | > 20 | > 20 |
| OC1(c2ccc(Cl)cc2)c2ccccc2C2=NCCN21 (stereo not drawn) [MAZINDOL] | > 20 | > 20 |
| CC(C)Cc1sc(N)nc1-c1ccc(P(=O)(O)O)o1 [MB-05032] | > 20 | > 20 |
| COC(=O)Nc1nc2cc(C(=O)c3ccccc3)ccc2[nH]1 [MEBENDAZOLE] | > 20 | > 20 |
| CCN(CCCCOC(=O)c1ccc(OC)c(OC)c1)C(C)Cc1ccc(OC)cc1 (stereo not drawn) [MEBEVERINE] | > 20 | > 20 |
| CN1CCc2c(c3ccccc3n2Cc2ccccc2)C1 [MEBHYDROLIN] | > 20 | > 20 |
| CN1C(=O)N(C)C2C1N(C)C(=O)N2C (stereo not drawn) [MEBICAR] | > 20 | > 20 |
| COc1ccc2[nH]cc(CCN(C)C)c2c1 [MEBUFOTENIN] | > 20 | > 20 |
| CNC1(C)C2CCC(C2)C1(C)C (stereo not drawn) [MECAMYLAMINE] | > 20 | > 20 |
| Cc1cccc(CN2CCN(C(c3ccccc3)c3ccc(Cl)cc3)CC2)c1 (stereo not drawn) [MECLIZINE] | > 20 | > 20 |
| C=C1c2c(Cl)ccc(O)c2C(=O)C2=C(O)[C@]3(O)C(=O)C(C(N)=O)=C(O)[C@@H](N(C)C)[C@@H]3[C@@H](O)[C@H]12 [MECLOCYCLINE] | > 20 | > 20 |
| Cc1ccc(Cl)c(Nc2ccccc2C(=O)O)c1Cl [MECLOFENAMIC ACID] | > 20 | > 20 |
| CN(C)CCOC(=O)COc1ccc(Cl)cc1 [MECLOFENOXATE] | > 20 | > 20 |
| Cc1nc2ccccc2c(=O)n1-c1ccccc1Cl [MECLOQUALONE] | > 20 | > 20 |
| CNC(=O)NC(O)C(Cl)(Cl)Cl (stereo not drawn) [MECLORALUREA] | > 20 | > 20 |
| COC(=O)C(N)CS (stereo not drawn) [MECYSTEINE] | > 20 | > 20 |
| Cc1cccc(C(C)c2c[nH]cn2)c1C (stereo not drawn) [MEDETOMIDINE] | > 20 | > 20 |
| CC(=O)[C@H]1CC[C@H]2[C@@H]3C[C@H](C)C4=CC(=O)CC[C@]4(C)[C@H]3[C@@H](O)C[C@]12C [MEDRYSONE] | > 20 | > 20 |
| Cc1cccc(Nc2ccccc2C(=O)O)c1C [MEFENAMIC ACID] | > 20 | > 20 |
| CCN(CC)CCNC(=O)COc1ccc(OC)cc1 [MEFEXAMIDE] | > 20 | > 20 |
| CN(CC1(C)CCCO1)S(=O)(=O)c1ccc(Cl)c(S(N)(=O)=O)c1 (stereo not drawn) [MEFRUSIDE] | > 20 | > 20 |
| CC(=O)O[C@]1(C(C)=O)CC[C@H]2[C@@H]3C=C(C)C4=CC(=O)CC[C@]4(C)[C@H]3CC[C@@]21C [MEGESTROL ACETATE] | > 20 | > 20 |
| CNC[C@H](O)[C@@H](O)[C@H](O)[C@H](O)CO [MEGLUMINE] | > 20 | > 20 |
| CC(O)(CC(=O)O)CC(=O)O [MEGLUTOL] | > 20 | > 20 |
